{"source": "patent US20240156838A1", "about": "“Contraceptive Compositions and Methods for Improved Efficacy and Modulation of Side Effects” (Agile Therapeutics, Inc., priority 2015, published 2024)", "key": {"[1]": {"settings": "cited from earlier work; for unenhanced flux: without chemical enhancers"}, "SHBG [2]": {"target": "T1, SHBG (Homo sapiens, UniProt P04278)", "T1 sequence (P04278 30-402)": "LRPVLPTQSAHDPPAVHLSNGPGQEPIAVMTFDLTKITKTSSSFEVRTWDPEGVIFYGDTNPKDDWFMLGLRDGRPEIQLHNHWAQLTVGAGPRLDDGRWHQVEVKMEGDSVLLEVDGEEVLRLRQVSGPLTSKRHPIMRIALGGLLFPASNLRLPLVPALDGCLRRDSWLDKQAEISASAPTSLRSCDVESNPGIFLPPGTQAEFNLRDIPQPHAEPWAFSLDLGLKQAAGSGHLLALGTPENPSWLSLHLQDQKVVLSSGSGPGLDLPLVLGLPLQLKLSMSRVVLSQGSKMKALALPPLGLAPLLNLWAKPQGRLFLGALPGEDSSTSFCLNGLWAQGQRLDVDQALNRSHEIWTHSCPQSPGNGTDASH", "settings": "cited from earlier work; for binding affinity for SHBG: Phillips 1990, Steroids"}, "[3]": {"settings": "in vivo; cited from earlier work"}, "SHBG [4]": {"target": "T1, SHBG", "settings": "cited from earlier work"}, "[5]": {"assay": "Second clinical trial of LNG plus EE transdermal patches (Example 2): serum/plasma LNG and EE levels", "settings": "clinical data of LNG plus EE patches versus LNG-only patches"}, "[6]": {"assay": "In vitro skin permeation of LNG from patches, Franz diffusion cells", "type": "in vitro ADME, human", "settings": "comparison in words", "method": "The objective of this study was to compare in vitro skin permeation of LNG through human cadaver skin from a patch containing both EE and LNG (Patch of column 4, Table 1) with a patch containing only LNG (patch in column 2, Table 1).\nOnly one (1) skin donor was used in these in vitro skin permeation experiments (split thickness dermatomed approximately at […] human cadaver skin). All in vitro skin permeation studies were conducted using the PermeGear Membrane Transport System. Each Membrane Transport System consisted of vertical, jacketed (37° C.±0.5° C.) Franz diffusion cells with magnetic stirrer, 2 chamber (donor and receiver) sets of 6 units, orifice diameter 15 mm, effective permeation surface area 1.767 cm^2. Each cell was prepared by cutting the skin samples into approximately 3 cm×3 cm squares and mounting them on the top of the receiver compartment of Franz cells. Patches to be tested were placed on the stratum corneum surface of the skin and the donor and receiver compartments of the diffusion cells were then clamped in place. The receiver compartment was then filled with approximately 12 mL of receiver medium/receptor solution (Phosphate Buffered Saline (PBS)+0.5% Oleth 20+0.008% Gentamicin, pH 7.3), tilting to make sure the receiver medium and the skin/solution interface was free of any air bubbles.\nSkin flux studies were run for a period of 168 hours. […]"}, "[7]": {"settings": "human, in vivo"}, "[8]": {"settings": "Victor et al., J. Clin. Endocrinol. Metab. 43: 244"}}, "note": "Where two headings read alike, the source gives them in different places.", "data": [{"molecule": "C#C[C@]1(O)CC[C@H]2[C@@H]3CCC4=CC(=NO)CC[C@@H]4[C@H]3CC[C@@]21CC", "note": "(mixture of isomers) [17 deacetylnorgestimate]", "values": [{"measurement": "unenhanced flux", "setting": "[1]; from cited patents", "result": 0.1, "unit": "micrograms/cm^2/hr"}]}, {"molecule": "C#C[C@]1(OC(C)=O)CC[C@H]2[C@@H]3CCC4=CC(=NO)CC[C@@H]4[C@H]3CC[C@@]21CC", "note": "(mixture of isomers) [norgestimate]", "values": [{"measurement": "binding affinity for SHBG", "setting": "SHBG [2]", "result": "low binding affinity"}]}, {"molecule": "C#CC1(O)CC[C@H]2[C@@H]3CCC4=CC(=O)CC[C@@H]4[C@H]3CC[C@@]21CC", "note": "(mixture of isomers) [dl-norgestrel]", "values": [{"measurement": "binding affinity to SHBG", "setting": "SHBG [2]; [8]", "result": "higher affinity for SHBG than EE"}]}, {"molecule": "C#C[C@]1(O)CC[C@H]2[C@@H]3CCC4=CC(=O)CC[C@@H]4[C@H]3C(=C)C[C@@]21CC", "note": "[3-keto desogestrel]", "values": [{"measurement": "binding affinity for SHBG", "setting": "SHBG [2]", "result": "reasonably high affinities"}, {"measurement": "binding affinity to SHBG", "setting": "SHBG [2]; Pollow 1989, Contraception", "result": "high binding affinity"}]}, {"molecule": "C[C@]12CC[C@@H]3c4ccc(O)cc4CC[C@H]3[C@@H]1CC[C@@H]2O", "note": "[17-beta estradiol, 17-beta-estradiol]", "values": [{"measurement": "oral bioavailability", "setting": "[3]", "result": "less than 10%"}]}, {"molecule": "C#C[C@]1(O)CC[C@H]2[C@@H]3CCc4cc(O)ccc4[C@H]3CC[C@@]21C", "note": "[EE, ethinyl estradiol]", "values": [{"measurement": "IC50", "setting": "SHBG [4]; Hong et al., 2015, read-out: IC50 in testosterone displacement assay", "result": 790, "unit": "nM"}, {"measurement": "IC50", "setting": "SHBG [4]; according to Hong (2015), read-out: IC50 (affinity for SHBG)", "result": 800, "unit": "nM"}, {"measurement": "oral bioavailability", "setting": "[3]", "result": 95, "unit": "%"}, {"measurement": "increase of LNG plasma levels by addition of EE relative to addition of an equivalent amount of LNG", "setting": "[5]", "result": "about ten"}]}, {"molecule": "C#C[C@]1(O)CC[C@H]2[C@@H]3CCC4=CC(=O)CC[C@@H]4[C@H]3CC[C@@]21CC", "note": "[LNG, levonorgestrel]", "values": [{"measurement": "permeation/release of LNG through human skin, LNG-only versus LNG plus EE patches", "setting": "[6]", "result": "not affected by the presence of EE"}, {"measurement": "mean serum concentration of LNG, value extrapolated from the data collected", "setting": "[7]", "result": 1420, "unit": "picograms per milliliter"}]}, {"molecule": "CC(=O)O[C@]1(C(C)=O)CC[C@H]2[C@@H]3C=C(C)C4=CC(=O)CC[C@]4(C)[C@H]3CC[C@@]21C", "note": "[Megestrol acetate]", "values": [{"measurement": "binding affinity to SHBG", "setting": "SHBG [2]; [8]", "result": "do not have high binding affinity"}]}, {"molecule": "C#C[C@]1(OC(C)=O)CC[C@H]2[C@@H]3CCC4=CC(=O)CC[C@@H]4[C@H]3CC[C@@]21C", "note": "[Norethindrone Acetate]", "values": [{"measurement": "flux", "setting": "[1]; U.S. Pat. No. 5,474,783, enhancement not stated", "result": 0.05, "unit": "micrograms/cm^2/hr"}]}, {"molecule": "CC(=O)O[C@]1(C(C)=O)CC[C@H]2[C@@H]3C=C(Cl)C4=CC(=O)[C@@H]5C[C@@H]5[C@]4(C)[C@H]3CC[C@@]21C", "note": "[cyproterone acetate]", "values": [{"measurement": "binding affinity to SHBG", "setting": "SHBG [2]; Pollow 1989, Contraception", "result": "lesser binding affinity"}]}, {"molecule": "C#C[C@]1(O)CC[C@H]2[C@@H]3CCC4=CC(=O)CC[C@@H]4[C@H]3CC[C@@]21CC", "note": "[d-norgestrel]", "values": [{"measurement": "binding affinity to SHBG", "setting": "SHBG [2]; [8]", "result": "higher affinity for SHBG than EE"}]}, {"molecule": "C#C[C@]1(O)CC[C@H]2[C@@H]3CCC4=CCCC[C@@H]4[C@H]3C(=C)C[C@@]21CC", "note": "[desogestrel]", "values": [{"measurement": "binding affinity to SHBG", "setting": "SHBG [2]; Pollow 1989, Contraception", "result": "lesser binding affinity"}, {"measurement": "binding affinity to SHBG", "setting": "SHBG [2]; Schoultz 1989", "result": "lesser binding affinity"}]}, {"molecule": "C#C[C@]1(O)C=C[C@H]2[C@@H]3CCC4=CC(=O)CC[C@@H]4[C@H]3CC[C@@]21CC", "note": "[gestodene]", "values": [{"measurement": "binding affinity for SHBG", "setting": "SHBG [2]", "result": "reasonably high affinities"}, {"measurement": "binding affinity to SHBG", "setting": "SHBG [2]; Pollow 1989, Contraception", "result": "high binding affinity"}]}, {"molecule": "C#C[C@]1(O)CC[C@H]2[C@@H]3CCC4=CCCC[C@@H]4[C@H]3CC[C@@]21C", "note": "[lynestrenol]", "values": [{"measurement": "binding affinity to SHBG", "setting": "SHBG [2]; [8]", "result": "higher affinity for SHBG than EE"}]}, {"molecule": "CC(=O)O[C@]1(C(C)=O)CC[C@H]2[C@@H]3C[C@H](C)C4=CC(=O)CC[C@]4(C)[C@H]3CC[C@@]21C", "note": "[medroxyprogesterone acetate]", "values": [{"measurement": "binding affinity to SHBG", "setting": "SHBG [2]; Pollow 1989, Contraception", "result": "lesser binding affinity"}, {"measurement": "binding affinity to SHBG", "setting": "SHBG [2]; Schoultz 1989", "result": "lesser binding affinity"}]}, {"molecule": "C=C1C[C@H]2[C@@H]3CCC4=CC(=O)CC[C@@H]4[C@H]3CC[C@]2(C)[C@@]1(OC(C)=O)C(C)=O", "note": "[nesterone]", "values": [{"measurement": "enhanced flux", "setting": "[1]; with chemical enhancers, from cited patents", "result": 0.01, "unit": "micrograms/cm^2/hr"}, {"measurement": "unenhanced flux", "setting": "[1]; from cited patents", "result": 0.005, "unit": "micrograms/cm^2/hr"}]}, {"molecule": "C#C[C@]1(OC(C)=O)CC[C@H]2[C@@H]3CCC4=CC(=O)CC[C@@H]4[C@H]3CC[C@@]21C", "note": "[norethisterone acetate]", "values": [{"measurement": "unenhanced flux", "setting": "[1]; from cited patents", "result": 0.05, "unit": "micrograms/cm^2/hr"}]}, {"molecule": "C#C[C@]1(O)CC[C@H]2[C@@H]3CCC4=CC(=O)CC[C@@H]4[C@H]3CC[C@@]21C", "note": "[norethisterone]", "values": [{"measurement": "binding affinity to SHBG", "setting": "SHBG [2]; Schoultz 1989", "result": "high binding affinity"}, {"measurement": "binding affinity to SHBG", "setting": "SHBG [2]; [8]", "result": "higher affinity for SHBG than EE"}]}, {"molecule": "C#C[C@]1(O)CC[C@H]2[C@@H]3CCC4=C(CCC(=O)C4)[C@H]3CC[C@@]21C", "note": "[norethynodrel]", "values": [{"measurement": "binding affinity to SHBG", "setting": "SHBG [2]; [8]", "result": "higher affinity for SHBG than EE"}]}, {"molecule": "CC(=O)[C@H]1CC[C@H]2[C@@H]3CCC4=CC(=O)CC[C@]4(C)[C@H]3CC[C@]12C", "note": "[progesterone]", "values": [{"measurement": "unenhanced flux", "setting": "[1]; from cited patents", "result": 0.14, "unit": "micrograms/cm^2/hr"}, {"measurement": "binding affinity to SHBG", "setting": "SHBG [2]; Pollow 1989, Contraception", "result": "lesser binding affinity"}]}, {"molecule": "medroxyprogesterone", "values": [{"measurement": "binding affinity to SHBG", "setting": "SHBG [2]; [8]", "result": "do not have high binding affinity"}]}]}
